Patent publication US20170202838A1, “IMMUNOMODULATOR” (TAIHO PHARMACEUTICAL CO., LTD., priority 2015, published 2017)

Columns and labels:
[1] = tested on: MC38; experiment: Immune-system-associated gene expression in tumors via real-time PCR (Example 11); type: in vivo, mouse; conditions: final day of administration, relative to control
Description: (§1) A cell suspension of the mouse colon cancer cell line MC38 was prepared with the use of PBS(-) and 50% Matrigel, and the cell suspension was injected subcutaneously into mice at 1×10^6 cells/mouse. The mice were divided into groups when the average subcutaneous tumor volume reached approximately 50 mm^3, Compound (I) (50 mg/kg) or the anti-PD-1 antibody (50 μg/mouse) was administered thereto alone or Compound (I) (50 mg/kg) was administered in combination with the anti-PD-1 antibody (50 μg/mouse), and the tumor volume was measured with the elapse of time. The tumor volume was determined on the basis of the longer diameter and the shorter diameter of the tumor measured percutaneously in accordance with Equation A shown below.
FIGS. 14 to 16 show changes in the immune-system-associated gene expression levels in tumors of the groups on the final day of administration of Compound (I). The tumor samples were obtained from the groups on the final day of administration of Compound (I) to prepare cDNA samples. The prepared cDNA samples were subjected to gene expression analysis via real-time PCR with the use of various immune-system-associated gene probes, and the results thereof were plotted. β-Actin was used as a control. Each plot indicates a gene expression level relative to a value of one of the controls. In the group to which Compound (I) had been administered, CD3, CD4, CD8, NK1.1, IL-2, IFN-γ, Perforin, Granzyme B, and CD69 gene expression levels increased, compared with those in the group to which Compound (I) had not been administered.

[2] = tested on: MC38; experiment: Tumor volume of subcutaneous mouse colon cancer cell line, alone or combined with anti-PD-1 antibody, in vivo model (Example 11)
Description: as §1
Tumor volume (mm^3)=longer diameter (mm)×shorter diameter (mm)^2/2 (Equation A)

[3] = tested on: C57BL/6N mouse spleen cells mixed with irradiated BALB/c mouse spleen cells; experiment: T cell modulation through mixed lymphocyte reaction, 3H-Thd uptake (Example 3); type: cell-based; conditions: allogeneic mixed spleen cells, 3 days culture (FIG. 4)
Text: A mixed lymphocyte reaction (MLR) is a representative experimentation technique for T cell modulation described in, for example, J. Exp. Med. 127 (5): 879-90, 1968. The influence of Compound (I) imposed on T cell modulation through this reaction was examined.
Spleens were extracted from C57BL/6N mice and BALB/c mice, grinded with glass slides with frosted areas, and then subjected to hemolysis, so as to obtain spleen cells. The C57BL/6N mouse spleen cells and the BALB/c mouse spleen cells were introduced into a complete medium (i.e., RPMI-1640 supplemented with 10% heat-inactivated FBS, 100 U/ml penicillin, 100 μg/ml streptomycin, and 55 μM 2-mercaptoethanol). The BALB/c mouse spleen cells were irradiated with 30 Gy X-ray to destroy the growth activity. The spleen cells of these allogeneic mice were each added to the final concentration of 1×10^5 cells/well and mixed (Alo), and Compound (I) or the EGFR tyrosine kinase inhibitor (i.e., AZD09291 or Erlotinib) adjusted to relevant concentrations was added thereto. As a control sample, a mixture of syngeneic C57BL/6N mouse spleen cells (Syn) was also prepared. The culture solution was seeded in a 96-well plate at 200 μl/well and then cultured in an incubator at 37° C. in the presence of 5% CO2 for 3 days. […] The amount of 3H-Thd uptake was measured using a liquid scintillation counter.

[4] = tested on: human peripheral blood mononuclear cells; experiment: Induction of IL-2 production of PHA-M-stimulated human peripheral blood mononuclear cells (Example 2); type: cell-based; conditions: PHA-M 5 μg/ml, 3 days, ELISA (FIG. 3)
Description: Human peripheral blood mononuclear cells were introduced into a human complete medium (i.e., RPMI-1640 supplemented with 10% heat-inactivated FBS, 100 U/ml penicillin, and 100 μg/ml streptomycin) to prepare a cell suspension (1×10^6 cells/ml). Phytohemagglutinin M (PHA-M) was added thereto to the final concentration of 5 μg/ml, and Compound (I) or an EGFR tyrosine kinase inhibitor (AZD9291) was further added thereto to each final concentration. This culture solution was seeded in a 96-well plate at 200 μl/well and then cultured in an incubator at 37° C. in the presence of 5% CO2 for 3 days. The culture supernatant was recovered, and the concentration of IL-2 therein was measured via ELISA using the anti-hIL-2 antibody.

[5] = tested on: mouse spleen cells; experiment: Excitation of T cell growth, CFSE flow cytometry of CD4- and CD8-positive spleen cells (Example 4); type: cell-based; conditions: anti-CD3 1 μg/ml and anti-CD28 1 μg/ml, 3 days; comparators at 0.1 μM (FIG. 5)
Description: The mouse spleen was extracted, grinded with glass slides with frosted areas, and then subjected to hemolysis, so as to obtain spleen cells. The spleen cells were suspended in 5 ml of a staining buffer (0.5% BSA, 2 mM EDTA, PBS(-)), and the cells were stained with 5 μM CFSE (5-carboxyfluorescein succinimidyl ester). Thereafter, the stained cells were washed with an ice-cooled complete medium (RPMI-1640). The CFSE-stained spleen cells were introduced into a complete medium (i.e., RPMI-1640 supplemented with 10% heat-inactivated FBS, 100 U/ml penicillin, 100 μg/ml streptomycin, and 55 μM 2-mercaptoethanol) to prepare a cell suspension (1×10^6 cells/ml), the anti-CD3 antibody and the anti-CD28 antibody were added at 1 μg/ml and 1 μg/ml, respectively, and Compound (I) adjusted to various concentrations or the EGFR tyrosine kinase inhibitor (i.e., AZD09291, Erlotinib, Co1686 (Rociletinib), Ibrutinib, Sunitinib, or Dasatinib) was added at 0.1 μM. […] These culture solutions were seeded in a 96-well plate at 200 μl/well and then cultured in an incubator at 37° C. in the presence of 5% CO2 for 3 days. The cells were recovered and stained with the anti-CD4 antibody and the anti-CD8 antibody. The amounts of CFSE in CD4- and CD8-positive cells were analyzed via flow cytometry.
Once CFSE is incorporated into a cell, the amount thereof is kept constant in the cell. Since the amount of CFSE per cell decreases by half upon cell division, according to flow cytometric analysis, the intensity of CFSE staining is attenuated and is shifted toward left (i.e., lower level) in the chart, as cell division proceeds. […] In the case of the samples to which other types of EGFR tyrosine kinase inhibitors had been added, in contrast, no such activity for enhancing the cell growth was observed.

SMILES: C=CC(=O)N[C@H]1CCc2c(-c3cnc4ccccc4c3)c3c(N)ncnc3n2C1 [Compound (I), (S)—N-(4-amino-5-(quinolin-3-yl)-6,7,8,9-tetrahydropyrimido[5,4-b]indolizin-8-yl)acrylamide]
- CD3 gene expression level in tumors ([1]; β-Actin control (FIG. 14)): increased
- CD4 gene expression level in tumors ([1]; β-Actin control (FIG. 14)): increased
- CD8 gene expression level in tumors ([1]; β-Actin control (FIG. 14)): increased
- IFN-γ gene expression level in tumors ([1]; β-Actin control (FIG. 15)): increased
- IL-2 gene expression level in tumors ([1]; β-Actin control (FIG. 15)): increased
- NK1.1 gene expression level in tumors ([1]; β-Actin control (FIG. 15)): increased
- CD69 gene expression level in tumors ([1]; β-Actin control (FIG. 16)): increased
- Granzyme B gene expression level in tumors ([1]; β-Actin control (FIG. 16)): increased
- Perforin gene expression level in tumors ([1]; β-Actin control (FIG. 16)): increased
- extent of tumor growth inhibition (tumor volume) ([2]; Compound (I) 50 mg/kg alone, compared with control group (FIG. 13)): greater
- potentiation of the activity of the anti-PD-1 antibody (tumor volume) ([2]; Compound (I) 50 mg/kg in combination with anti-PD-1 antibody 50 μg/mouse (FIG. 13)): potentiate the immunomodulation activity of the anti-PD-1 antibody
- amount of 3H-Thd uptake (amount of T cells grown through the mixed lymphocyte reaction) [3]: induced the growth of T cells
- concentration of IL-2 produced by human peripheral blood mononuclear cells in the culture supernatant [4]: induced IL-2 production
- amount of CFSE per CD4-positive cell (cell growth) [5]: decreases
- amount of CFSE per CD8-positive cell (cell growth) [5]: decreases
